pKi: −log10 of the molar value. Where a name gives a salt, the structure may show the parent alone. Read-outs that look alike come from different tables or passages of the source.
Experiments:
anesthetized dogs [1] = test: Mean arterial pressure (MAP) in anesthetized dogs; format: in vivo, dog; conditions: iv dose causing a maximum increase in MAP of 20 mm Hg, anesthetized female Beagle dogs
Excerpt: (§1) Female Beagle dogs (Marshall Farms, North Rose, N.Y.) greater that 2 years of age and weighing between 12 and 15 kg were used in these studies. At least 2 weeks prior to any agonist dosing, dogs were instrumented for the chronic measurement of arterial blood pressure by implanting a telemetry transducer/transmitter (TA11PA-C40, Data Sciences International, St. Paul, Minn.) into a carotid artery.
(§2) On the test day, dogs fasted since the previous afternoon were pre-anesthetized with thiopental sodium 15 mg/kg i.v. (Pentothal™, Abbott) and intubated. Anesthesia was maintained by allowing the dog to spontaneously breathe a mixture of isoflurane (2.5 to 3 volume %) and oxygen delivered by a Narkomed Standard anesthesia system (North American Drager, Telford, Pa.). An Abbocath-T™ i.v. catheter (18-G, Abbott) was inserted into the cephalic vein for the administration of agonists. A telemetry receiver (RA1310, DataSciences) was placed under the head of each dog and was interfaced to a computerized data acquisition system (Modular Instruments Inc.(MI2), Malvern, Pa.) which allowed for the continuous calibrated recording of arterial blood pressure which was electronically filtered to determine its mean value (MAP).
(§3) From the resulting dose response curve, an ED5 value, for the dose causing a maximum increase in IUP of 5 mm Hg, could be estimated. An ED20 value for the dose causing a maximum increase in MAP of 20 mm Hg could also be estimated. A selectivity ratio of MAP ED20 vs. IUP ED, was calculated.

anesthetized dogs [2] = test: Intraurethral pressure (IUP) in anesthetized dogs; format: in vivo, dog; conditions: for ED (5 mm Hg): Canis lupus familiaris, read-out: Mean IUP ED5; for Mean Selectivity Ratio MAP ED20/IUP ED5: anesthetized dogs, iv
Excerpt: as §1, §2
Dogs with chronic telemetry implants anesthetized as described above were placed in dorsal recumbency and a balloon catheter was inserted into the urethral orifice and advanced approximately 15 cm until the tip was well inside the bladder. The balloon was then inflated with 1 ml of room air and the catheter slowly withdrawn until resistance (corresponding to the bladder neck) was evident. The balloon was then deflated and the catheter withdrawn additional 2 cm. The balloon was then reinflated and its catheter port connected to a Gould Statham P23Dd pressure transducer interfaced to a computerized data acquisition system (Modular Instruments, Inc., Malvern, Pa.) for the measurement of the intraurethral pressure. Increasing iv doses of test agonists were administered and the maximum effect of each dose on IUP was recorded. The effect of each dose was allowed to return to baseline before the next dose was given.
as §3

[3] = target: T1, α1b (hamster receptor expressed in mouse fibroblasts) (Mesocricetus auratus, UniProt P18841); test: Radioligand binding, [3H]-prazosin, α1b
T1 construct: expressed in transfected cells; host or cells: mouse fibroblasts
T1 sequence (P18841 1-515): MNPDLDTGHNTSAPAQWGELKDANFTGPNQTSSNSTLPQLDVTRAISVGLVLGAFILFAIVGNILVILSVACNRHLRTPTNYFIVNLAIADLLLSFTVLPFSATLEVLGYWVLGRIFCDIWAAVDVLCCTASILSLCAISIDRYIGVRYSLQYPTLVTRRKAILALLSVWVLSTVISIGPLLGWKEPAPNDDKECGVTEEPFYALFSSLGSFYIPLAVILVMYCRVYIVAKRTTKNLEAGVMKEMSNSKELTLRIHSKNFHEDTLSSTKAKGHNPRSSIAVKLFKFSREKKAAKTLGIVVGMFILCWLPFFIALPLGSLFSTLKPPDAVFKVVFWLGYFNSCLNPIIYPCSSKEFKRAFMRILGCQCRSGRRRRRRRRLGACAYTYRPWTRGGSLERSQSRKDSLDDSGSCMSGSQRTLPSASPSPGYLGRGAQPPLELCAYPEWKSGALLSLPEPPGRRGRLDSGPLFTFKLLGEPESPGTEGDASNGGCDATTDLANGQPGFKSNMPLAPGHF
Procedure: (§4) For purposes of discussing a, adrenoceptor subtypes, the IUPHAR convention of using lower case letters to define molecular clones and upper case letters to indicate pharmacologically defined adrenoceptors has been followed. Compounds of formula I were evaluated in radioligand binding assays specific for α1A (rat submaxillary gland), α1b (hamster receptor expressed in mouse fibroblasts) and α1d (rat receptor expressed in mouse fibroblasts) using [^3H]-prazosin as the radioligand as described in Knepper, et al. J. Pharm.

[4] = target: T2, α1d (rat receptor expressed in mouse fibroblasts) (Rattus norvegicus, UniProt P23944); test: Radioligand binding, [3H]-prazosin, α1d
T2 construct: expressed in transfected cells; host or cells: mouse fibroblasts
T2 sequence (P23944 1-561): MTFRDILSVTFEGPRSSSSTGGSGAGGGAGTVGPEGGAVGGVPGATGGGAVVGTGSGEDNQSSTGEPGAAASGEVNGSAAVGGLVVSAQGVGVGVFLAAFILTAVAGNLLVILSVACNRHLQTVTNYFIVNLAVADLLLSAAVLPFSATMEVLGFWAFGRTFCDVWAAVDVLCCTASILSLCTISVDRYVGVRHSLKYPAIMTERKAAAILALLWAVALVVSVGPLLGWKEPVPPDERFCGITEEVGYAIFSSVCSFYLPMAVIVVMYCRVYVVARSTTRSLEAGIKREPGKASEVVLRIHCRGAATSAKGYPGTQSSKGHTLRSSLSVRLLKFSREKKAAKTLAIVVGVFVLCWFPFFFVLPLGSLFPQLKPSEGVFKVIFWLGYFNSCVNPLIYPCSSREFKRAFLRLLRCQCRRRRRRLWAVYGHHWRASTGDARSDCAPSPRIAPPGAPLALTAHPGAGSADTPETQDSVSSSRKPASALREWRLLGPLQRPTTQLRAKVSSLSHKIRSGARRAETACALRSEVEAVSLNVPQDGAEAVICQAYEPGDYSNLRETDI
Procedure: as §4

[5] = target: T3, α1A (rat submaxillary gland) (Rattus norvegicus, UniProt P43140); test: Radioligand binding, [3H]-prazosin, α1A
T3 construct: α1A (rat submaxillary gland); from tissue; host or cells: rat submaxillary gland
T3 sequence (P43140 1-466): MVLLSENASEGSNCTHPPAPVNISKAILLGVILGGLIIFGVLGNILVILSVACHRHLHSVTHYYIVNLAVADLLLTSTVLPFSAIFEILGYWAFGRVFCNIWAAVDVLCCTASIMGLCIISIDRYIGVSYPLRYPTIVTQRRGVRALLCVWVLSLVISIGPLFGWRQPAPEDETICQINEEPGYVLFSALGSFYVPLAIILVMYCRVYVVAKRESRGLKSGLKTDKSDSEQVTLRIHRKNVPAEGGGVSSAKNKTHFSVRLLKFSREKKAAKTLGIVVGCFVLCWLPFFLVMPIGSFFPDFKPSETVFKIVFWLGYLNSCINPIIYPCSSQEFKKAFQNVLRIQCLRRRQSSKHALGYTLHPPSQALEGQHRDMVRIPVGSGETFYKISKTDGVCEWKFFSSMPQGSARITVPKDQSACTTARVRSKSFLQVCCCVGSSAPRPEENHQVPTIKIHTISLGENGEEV
Procedure: as §4

[6] = iv dose causing a maximum increase in IUP of 5 mm Hg, anesthetized female Beagle dogs
[7] = hamster receptor expressed in mouse fibroblasts, [3H]-prazosin, read-out: Radioligand Binding Ki α1b (Hamster)
[8] = rat receptor expressed in mouse fibroblasts, [3H]-prazosin, read-out: Radioligand Binding Ki α1d (Rat)

SMILES | ED (5 mm Hg) (anesthetized dogs [2]; [6]) [µmol/kg] | melting point [°C] | Mean MAP ED20 (anesthetized dogs [1]) [nmol/kg] | pKi [3, 7] | other results
CCS(=O)(=O)Nc1cccc2c1CCCC2c1c[nH]cn1.O=C(O)/C=C\C(=O)O (single isomer, unassigned; (+)) [Example 33, (+)-N-[5-(1H-imidazol-4-yl)-5,6,7,8-tetrahydro-1-naphthalenyl]ethanesulfonamide, Maleate] | – | – | – | – | Mean MAP ED20 (anesthetized dogs [1]; Maleate): 34.0 nmol/kg
CS(=O)(=O)Nc1cccc2c1OCCC2c1c[nH]cn1.O=C(O)/C=C\C(=O)O (single isomer, unassigned; (+)) [Example 93, (+) N-[4-(1H-imidazol-4-yl)-3,4-dihydro-2H-chromen-8-yl]methanesulfonamide Maleate] | 0.038 | 205 to 208 | – | – | –
CCS(=O)(=O)Nc1cccc2c1CCCC2c1c[nH]cn1.O=C(O)/C=C\C(=O)O (single isomer, unassigned; (-)) [Example 34, (−)-N-[5-(1H-imidazol-4-yl)-5,6,7,8-tetrahydro-1-naphthalenyl]ethanesulfonamide, Maleate] | – | 129 to 130 | – | – | Mean MAP ED20 (anesthetized dogs [1]; Maleate): >1000 nmol/kg; pKi ([3]; hamster receptor expressed in mouse fibroblasts, [3H]-prazosin, Maleate, read-out: Radioligand Binding Ki α1b (Hamster)): 5.00
CS(=O)(=O)Nc1cccc2c1CCC[C@@H]2c1c[nH]cn1 [Example 10, (−)-N-[(5S)-5-(1H-imidazol-4-yl)-5,6,7,8-tetrahydro-1-naphthalenyl]methanesulfonamide] | > 1 | 118 to 123 | >1000 | – | –
Cl.Cn1cnc(C2CCCc3c(NS(C)(=O)=O)cccc32)c1 (stereo not drawn) [Example 14, N-[5,6,7,8-tetrahydro-5-(1-methyl-1H-imidazol-4-yl)-1-naphthalenyl]methanesulfonamide, Hydrochloride] | – | 130 to 135 | >1000 | – | –
CN(c1cccc2c1CCCC2c1c[nH]cn1)S(C)(=O)=O.O=C(O)/C=C\C(=O)O (stereo not drawn) [Example 15, N-[5-(1H-imidazol-4-yl)-5,6,7,8-tetrahydro-1-naphthalenyl]-N-methylmethanesulfonamide, Maleate] | 0.0919 | – | 225 | 5.00 | –
CC(=O)Nc1cccc2c1CCCC2c1c[nH]cn1.O=C(O)/C=C\C(=O)O (stereo not drawn) [Example 16, N-[5,6,7,8-tetrahydro-5-(1H-imidazol-4-yl)-1-naphthalenyl]acetamide, Maleate] | – | 159 to 160 | 220 | – | –
O=C(Nc1cccc2c1CCCC2c1c[nH]cn1)C(F)(F)F.O=C(O)/C=C\C(=O)O (stereo not drawn) [Example 17, 2,2,2-trifluoro-N-[5-(1H-imidazol-4-yl)-5,6,7,8-tetrahydro-1-naphthalenyl]acetamide, maleate] | 0.188 | – | 216 | 5.00 | –
COc1ccc(NS(C)(=O)=O)c2c1C(c1c[nH]cn1)CCC2 (stereo not drawn) [Example 26, N-[5,6,7,8-tetrahydro-(1H-imidazol-4-yl)-4-methoxy-1-naphthalenyl]methanesulfonamide, Maleate] | – | – | – | 5.00 | Mean IUP ED5 (anesthetized dogs [2]; [6]): 653 nmol/kg; pKi [4, 8]: 5.00
CCS(=O)(=O)Nc1cccc2c1CCC2c1c[nH]cn1.O=C(O)/C=C\C(=O)O (stereo not drawn) [Example 39, N-[1-(1H-imidazol-4-yl)-2,3-dihydro-1H-inden-4-yl]ethanesulfonamide, Maleate] | – | 148 to 149 | 5.6 | – | –
CS(=O)(=O)Nc1ccc(F)c2c1CCCC2c1c[nH]cn1.O=C(O)/C=C\C(=O)O (stereo not drawn) [Example 44, N-[4-fluoro-5-(1H-imidazol-4-yl)-5,6,7,8-tetrahydro-1-naphthalenyl]methanesulfonamide, Maleate] | 0.892 | 182 to 186 | 588 | 5.00 | –
C=C(c1cccc(NS(=O)(=O)CC)c1)c1c[nH]cn1.O=C(O)/C=C\C(=O)O [Example 45, N-{3-[1-(1H-imidazol-4-yl)vinyl]phenyl}ethanesulfonamide, Maleate] | 0.273 | – | 633 | – | –
CCS(=O)(=O)Nc1cc(F)cc2c1OCCC2c1c[nH]cn1.O=C(O)/C=C\C(=O)O (stereo not drawn) [Example 80, N-[6-fluoro-4-(1H-imidazol-4-yl)-3,4-dihydro-2H-chromen-8-yl]ethanesulfonamide, Maleate] | 0.113 | – | 125.78 | 5.00 | Mean Selectivity Ratio MAP ED20/IUP ED5 (anesthetized dogs [2]): 1.12; pKi [5]: 6.42; pKi [4, 8]: 5.80
CCS(=O)(=O)Nc1cc(Cl)cc2c1CCCC2c1c[nH]cn1 (stereo not drawn) [Example 132, N-[3-chloro-5-(1H-imidazol-4-yl)-5,6,7,8-tetrahydro-1-naphthalenyl]ethanesulfonamide] | 0.019 | – | 47.7 | – | Mean Selectivity Ratio MAP ED20/IUP ED5 (anesthetized dogs [2]): 2.5; pKi [5]: 7.33; pKi [4]: 6.44; pKi [3]: 5.00

From patent US20030073850A1, “4-Imidazole derivatives of benzyl and restricted benzyl sulfonamides, sulfamides, ureas, carbamates, and amides and their use” (priority 1998, published 2003)
